Entries after “also recorded” stand apart in the source; their conditions may differ.
How the values were obtained:
[1] = biological target: T1, CXCR4 (Homo sapiens, UniProt P61073); test: Inhibition of CXCR4 mAb-binding to TZM-bl cells; details: serial dilutions in 1 μg/ml CXCR4 mAb, fixed TZM-bl cells, 40 min on ice
[2] = biological target: T1, CXCR4; test: cell-based; details: TZM-bl, read-out: Inhibition of cell-associated 4DV3-Biot
[3] = test system: HIV-1 IIIB; test: HIV-1 entry inhibition assay in TZM-bl reporter cells, X4 strain; assay type: cell-based

T1 sequence (P61073 whole entry): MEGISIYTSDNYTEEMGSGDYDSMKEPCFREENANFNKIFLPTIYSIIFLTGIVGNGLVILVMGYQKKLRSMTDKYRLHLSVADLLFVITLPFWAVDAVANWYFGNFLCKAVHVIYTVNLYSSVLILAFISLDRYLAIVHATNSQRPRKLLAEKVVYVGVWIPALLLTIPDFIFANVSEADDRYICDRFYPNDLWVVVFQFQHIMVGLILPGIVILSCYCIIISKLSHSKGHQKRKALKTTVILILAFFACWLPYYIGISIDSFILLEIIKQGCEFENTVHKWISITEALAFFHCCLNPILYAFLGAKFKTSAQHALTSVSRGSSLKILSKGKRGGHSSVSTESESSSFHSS

`c1cc(CN2CCCNCCNCCCNCC2)ccc1CN1CCCNCCNCCCNCC1` [AMD3100, bicyclam JM-2987] was tested, and the “Inhibition of CXCR4 mAb clone 44708 binding to TZM-bl cells, in words” value [1] was “poor ability to inhibit mAb binding; also recorded: ineffective at the tested concentrations”, the inhibition at 20 µM [2] was 31% and the inhibition at 200 µM [2] was 47%. The IC50 ([3]; Human immunodeficiency virus 1, IIIB, TZM-bl, read-out: IC50 of HIV-1 entry inhibition, X4 strain HIV-1 IIIB) was 0.415 nM and the “Potency of HIV-1 IIIB entry inhibition relative to 4DV3-FITC” value ([3]; more potent than 4DV3-FITC, ratio of IC50, TZM-bl cells) was 1000 fold.
